Calls of active or inactive are those of the source.
Legend:
[1] = molecular target: T1, G-protein coupled receptor 35 (Homo sapiens, UniProt Q9HC97); experiment: SAR analysis of Agonists of the GPR35 Receptor using an Image-Based Assay - Set 2. [Related pubchem assays (depositor defined):AID2013, AID2026]; type: functional
Cannabinoid receptor 1 [2] = molecular target: T2, Cannabinoid receptor 1 (Homo sapiens, UniProt P21554); experiment: SAR analysis of antagonists of the Cannabinoid Receptor 1 using an Image-Based Assay - Set 2. [Related pubchem assays (depositor defined):AID2013, AID2026]; type: functional
T2 sequence (P21554 whole entry): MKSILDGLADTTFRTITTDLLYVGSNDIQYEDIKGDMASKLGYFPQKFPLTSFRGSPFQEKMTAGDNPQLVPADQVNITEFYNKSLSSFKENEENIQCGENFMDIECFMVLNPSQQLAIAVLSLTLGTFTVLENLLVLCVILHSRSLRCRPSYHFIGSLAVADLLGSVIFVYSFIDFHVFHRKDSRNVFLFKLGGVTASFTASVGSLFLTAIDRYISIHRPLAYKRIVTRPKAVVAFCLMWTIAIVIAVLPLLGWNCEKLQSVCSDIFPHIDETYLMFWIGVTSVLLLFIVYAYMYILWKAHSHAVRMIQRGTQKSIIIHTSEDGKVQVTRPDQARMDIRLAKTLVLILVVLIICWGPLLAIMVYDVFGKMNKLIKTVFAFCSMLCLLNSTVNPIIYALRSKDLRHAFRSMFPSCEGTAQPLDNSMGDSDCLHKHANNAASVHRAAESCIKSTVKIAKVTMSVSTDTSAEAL

[3] = molecular target: T1, G-protein coupled receptor 35; experiment: SAR analysis of Antagonists of the GPR35 Receptor using an Image-Based Assay - Set 3. [Related pubchem assays (depositor defined):AID2013, AID2026]; type: functional
Cannabinoid receptor 2 [4] = molecular target: T3, Cannabinoid receptor 2 (Homo sapiens, UniProt P34972); experiment: SAR analysis of agonists of the Cannabinoid Receptor 2 using an Image-Based Assay. [Related pubchem assays (depositor defined):AID2013, AID2026]; type: functional
T3 sequence (P34972 whole entry): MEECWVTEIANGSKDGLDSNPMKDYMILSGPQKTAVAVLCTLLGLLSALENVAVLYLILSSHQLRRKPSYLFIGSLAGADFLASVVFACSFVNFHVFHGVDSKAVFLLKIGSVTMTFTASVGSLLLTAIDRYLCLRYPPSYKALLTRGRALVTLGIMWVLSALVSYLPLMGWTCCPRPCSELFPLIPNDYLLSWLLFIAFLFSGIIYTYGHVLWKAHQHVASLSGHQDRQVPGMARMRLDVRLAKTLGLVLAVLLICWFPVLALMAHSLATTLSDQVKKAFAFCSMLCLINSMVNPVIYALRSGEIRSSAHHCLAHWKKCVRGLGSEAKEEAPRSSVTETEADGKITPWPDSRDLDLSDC

Cannabinoid receptor 1 [5] = molecular target: T2, Cannabinoid receptor 1; experiment: SAR analysis of agonists of the Cannabinoid Receptor 1 using an Image-Based Assay - Set 2. [Related pubchem assays (depositor defined):AID2013, AID2026]; type: functional
[6] = molecular target: T4, G-protein coupled receptor 55 (Homo sapiens, UniProt Q9Y2T6); experiment: GPR55 antagonist potency of analogs, SAR follow-up, imaging, U2OS, beta-arrestin-GFP, LPI agonist, set 2 (AID 2820); type: functional
T4 sequence (Q9Y2T6 whole entry): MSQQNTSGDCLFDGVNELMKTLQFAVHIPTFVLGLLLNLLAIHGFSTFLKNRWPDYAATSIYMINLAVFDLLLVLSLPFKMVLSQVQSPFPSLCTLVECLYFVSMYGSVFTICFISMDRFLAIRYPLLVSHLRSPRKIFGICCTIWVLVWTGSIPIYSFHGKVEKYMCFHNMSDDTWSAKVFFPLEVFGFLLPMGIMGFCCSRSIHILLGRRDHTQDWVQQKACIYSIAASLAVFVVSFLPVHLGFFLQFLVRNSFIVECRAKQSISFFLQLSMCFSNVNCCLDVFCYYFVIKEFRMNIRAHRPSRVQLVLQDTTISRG

[7] = molecular target: T4, G-protein coupled receptor 55; experiment: GPR55 antagonists blocking LPI-driven arrestin recruitment, primary screen, imaging, U2OS, beta-arrestin-GFP, LPI agonist (AID 2013); type: functional;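 further: antagonist potency measured as reduced agonist-driven arrestin aggregation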
Cannabinoid receptor 2 [8] = molecular target: T3, Cannabinoid receptor 2; experiment: SAR analysis of antagonists of the Cannabinoid Receptor 2 using an Image-Based Assay. [Related pubchem assays (depositor defined):AID2013, AID2026]; type: functional
[9] = molecular target: T5, E3 ubiquitin-protein ligase XIAP (Homo sapiens, UniProt P98170); experiment: SAR analysis of Antagonists of IAP-family anti-apoptotic proteins. [Related pubchem assays (depositor defined):AID1018, AID1449, AID1513, AID1514, AID1638]
T5 sequence (P98170 whole entry, the tested form may be a part): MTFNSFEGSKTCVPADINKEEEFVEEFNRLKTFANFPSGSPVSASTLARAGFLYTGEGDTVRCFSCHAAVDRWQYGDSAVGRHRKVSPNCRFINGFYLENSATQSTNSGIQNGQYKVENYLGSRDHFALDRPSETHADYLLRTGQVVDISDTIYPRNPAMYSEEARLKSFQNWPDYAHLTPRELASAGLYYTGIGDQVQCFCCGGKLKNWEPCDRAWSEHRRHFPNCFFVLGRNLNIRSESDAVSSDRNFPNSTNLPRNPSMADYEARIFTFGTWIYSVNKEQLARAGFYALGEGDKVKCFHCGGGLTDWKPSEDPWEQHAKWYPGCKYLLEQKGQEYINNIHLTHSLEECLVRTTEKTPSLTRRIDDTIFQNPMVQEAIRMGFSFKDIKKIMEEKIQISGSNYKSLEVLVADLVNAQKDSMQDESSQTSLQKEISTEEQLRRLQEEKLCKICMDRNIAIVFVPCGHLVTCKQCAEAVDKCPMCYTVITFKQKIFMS

[10] = molecular target: T5, E3 ubiquitin-protein ligase XIAP; experiment: SAR analysis of Antagonists of XIAP-Bir3 domain of IAP-family anti-apoptotic proteins. [Related pubchem assays (depositor defined):AID1018, AID1449, AID1513, AID1514, AID1638]
Cannabinoid receptor 2 [11] = molecular target: T3, Cannabinoid receptor 2; experiment: SAR analysis of agonists of the Cannabinoid Receptor 2 using an Image-Based Assay - Set 3. [Related pubchem assays (depositor defined):AID2013, AID2026]; type: functional
Cannabinoid receptor 1 [12] = molecular target: T2, Cannabinoid receptor 1; experiment: SAR analysis of agonists of the Cannabinoid Receptor 1 using an Image-Based Assay - Set 4. [Related pubchem assays (depositor defined):AID2013, AID2026]; type: functional
Cannabinoid receptor 2 [13] = molecular target: T3, Cannabinoid receptor 2; experiment: SAR analysis of antagonists of the Cannabinoid Receptor 2 using an Image-Based Assay - Set 3. [Related pubchem assays (depositor defined):AID2013, AID2026]; type: functional
[14] = molecular target: T1, G-protein coupled receptor 35; experiment: SAR analysis of Agonists of the GPR35 Receptor using an Image-Based Assay - Set 4. [Related pubchem assays (depositor defined):AID2013, AID2026]; type: functional
Cannabinoid receptor 1 [15] = molecular target: T2, Cannabinoid receptor 1; experiment: SAR analysis of antagonists of the Cannabinoid Receptor 1 using an Image-Based Assay - Set 4. [Related pubchem assays (depositor defined):AID2013, AID2026]; type: functional
[16] = molecular target: T1, G-protein coupled receptor 35; experiment: SAR analysis of Antagonists of the GPR35 Receptor using an Image-Based Assay - Set 6. [Related pubchem assays (depositor defined):AID2013, AID2026]; type: functional
[17] = molecular target: T4, G-protein coupled receptor 55; experiment: SAR Analysis of Selective Antagonists of GPR55 using an Image-Based Assay - Set 4. [Related pubchem assays (depositor defined):AID2013, AID2026]; type: functional
[18] = molecular target: T6, Kappa-type opioid receptor (Homo sapiens, UniProt P41145); experiment: SAR analysis of small molecule antagonists of the kappa opioid receptor via a luminescent beta-arrestin assay - Set 5. [Related pubchem assays (depositor defined):AID1778, AID1785]; type: functional
T6 sequence (P41145 whole entry): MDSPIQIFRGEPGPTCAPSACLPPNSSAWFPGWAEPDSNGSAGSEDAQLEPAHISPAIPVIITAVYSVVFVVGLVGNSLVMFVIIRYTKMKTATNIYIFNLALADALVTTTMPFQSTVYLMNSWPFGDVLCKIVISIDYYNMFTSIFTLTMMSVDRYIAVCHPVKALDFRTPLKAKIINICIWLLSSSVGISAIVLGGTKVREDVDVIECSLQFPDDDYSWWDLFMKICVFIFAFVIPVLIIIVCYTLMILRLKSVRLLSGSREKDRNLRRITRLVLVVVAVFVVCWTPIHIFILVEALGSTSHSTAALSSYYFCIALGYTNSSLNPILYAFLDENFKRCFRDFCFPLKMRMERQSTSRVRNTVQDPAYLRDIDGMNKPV

[19] = molecular target: T6, Kappa-type opioid receptor; experiment: SAR analysis of small molecule antagonists of the kappa opioid receptor via a luminescent beta-arrestin assay - Set 4. [Related pubchem assays (depositor defined):AID1777, AID1778, AID1785, AID1786, AID1966, AID2133, AID2136, AID2285]; type: functional
[20] = molecular target: T7, Tyrosine-protein phosphatase non-receptor type 22 (Homo sapiens, UniProt Q9Y2R2); experiment: PubChem AID 2140
T7 sequence (Q9Y2R2 whole entry): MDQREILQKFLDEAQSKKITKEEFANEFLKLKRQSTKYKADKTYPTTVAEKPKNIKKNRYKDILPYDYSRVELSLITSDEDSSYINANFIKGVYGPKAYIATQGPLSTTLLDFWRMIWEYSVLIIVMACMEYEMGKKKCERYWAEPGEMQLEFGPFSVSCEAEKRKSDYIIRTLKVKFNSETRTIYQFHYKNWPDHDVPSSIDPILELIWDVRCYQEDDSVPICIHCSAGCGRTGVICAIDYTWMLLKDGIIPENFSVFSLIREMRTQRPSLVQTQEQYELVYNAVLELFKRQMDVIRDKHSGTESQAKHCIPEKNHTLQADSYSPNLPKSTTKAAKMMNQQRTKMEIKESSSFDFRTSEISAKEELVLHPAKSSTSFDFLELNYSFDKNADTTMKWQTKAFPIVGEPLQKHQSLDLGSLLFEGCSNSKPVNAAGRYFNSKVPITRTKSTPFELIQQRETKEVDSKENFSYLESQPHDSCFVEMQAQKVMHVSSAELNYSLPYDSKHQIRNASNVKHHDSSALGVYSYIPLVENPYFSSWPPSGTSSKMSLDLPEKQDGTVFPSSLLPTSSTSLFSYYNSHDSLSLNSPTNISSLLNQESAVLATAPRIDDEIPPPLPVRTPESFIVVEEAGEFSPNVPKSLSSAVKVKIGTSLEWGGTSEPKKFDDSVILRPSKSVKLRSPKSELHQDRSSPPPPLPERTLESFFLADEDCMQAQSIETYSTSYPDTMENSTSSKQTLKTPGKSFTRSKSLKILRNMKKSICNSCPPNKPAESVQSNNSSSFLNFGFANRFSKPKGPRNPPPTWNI

[21] = molecular target: Tyrosine-protein phosphatase non-receptor type 12 (Homo sapiens, UniProt Q05209); experiment: SAR Selectivity Analysis of small molecule inhibitors of PEST using pCAP in a fluorescence assay. [Related pubchem assays (depositor defined):AID1779, AID1784, AID2135]; type: functional
Tyrosine-protein phosphatase non-receptor type 12, sequence (Q05209 whole entry): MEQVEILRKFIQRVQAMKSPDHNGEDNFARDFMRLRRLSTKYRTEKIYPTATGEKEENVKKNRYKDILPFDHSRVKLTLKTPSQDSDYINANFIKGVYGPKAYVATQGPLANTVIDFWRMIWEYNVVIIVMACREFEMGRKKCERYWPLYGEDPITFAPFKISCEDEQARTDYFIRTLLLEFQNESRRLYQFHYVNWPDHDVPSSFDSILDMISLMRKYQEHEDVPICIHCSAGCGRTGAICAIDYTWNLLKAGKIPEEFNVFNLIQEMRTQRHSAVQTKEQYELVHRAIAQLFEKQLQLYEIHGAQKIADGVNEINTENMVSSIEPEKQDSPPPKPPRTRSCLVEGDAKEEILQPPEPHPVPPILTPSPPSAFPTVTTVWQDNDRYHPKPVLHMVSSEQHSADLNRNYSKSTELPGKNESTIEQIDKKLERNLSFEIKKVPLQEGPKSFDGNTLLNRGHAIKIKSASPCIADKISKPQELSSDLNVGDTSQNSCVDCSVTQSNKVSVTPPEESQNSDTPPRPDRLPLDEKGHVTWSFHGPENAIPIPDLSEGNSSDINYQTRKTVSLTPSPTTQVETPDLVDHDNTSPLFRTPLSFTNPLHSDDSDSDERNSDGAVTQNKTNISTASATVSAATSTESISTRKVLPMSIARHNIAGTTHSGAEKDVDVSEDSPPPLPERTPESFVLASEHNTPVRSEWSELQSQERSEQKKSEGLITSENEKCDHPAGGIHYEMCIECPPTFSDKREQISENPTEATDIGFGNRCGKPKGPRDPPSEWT

[22] = molecular target: T7, Tyrosine-protein phosphatase non-receptor type 22; experiment: SAR LYP1 Fluorescent Assay using OMFP substrate for In Vitro dose response studies - Set 3. [Related pubchem assays (depositor defined):AID1779, AID1784, AID2140, AID2686]; type: functional
[23] = molecular target: T7, Tyrosine-protein phosphatase non-receptor type 22; experiment: SAR LYP1 Fluorescent Assay using OMFP substrate for In Vitro dose response studies - Set 2. [Related pubchem assays (depositor defined):AID1779, AID1784, AID2140, AID449726, AID488869]; type: functional
[24] = molecular target: T7, Tyrosine-protein phosphatase non-receptor type 22; experiment: LYP (PTPN22) phosphatase inhibitor potency, SAR follow-up, biochemical, pCAP fluorogenic substrate, fluorescence, set 3 (AID 449727); type: functional
[25] = molecular target: T8, Tyrosine-protein phosphatase non-receptor type 7 (Homo sapiens, UniProt P35236); experiment: HePTP (PTPN7) phosphatase inhibitor potency, SAR follow-up, biochemical, set 2 (AID 449736); type: functional
T8 sequence (P35236 whole entry): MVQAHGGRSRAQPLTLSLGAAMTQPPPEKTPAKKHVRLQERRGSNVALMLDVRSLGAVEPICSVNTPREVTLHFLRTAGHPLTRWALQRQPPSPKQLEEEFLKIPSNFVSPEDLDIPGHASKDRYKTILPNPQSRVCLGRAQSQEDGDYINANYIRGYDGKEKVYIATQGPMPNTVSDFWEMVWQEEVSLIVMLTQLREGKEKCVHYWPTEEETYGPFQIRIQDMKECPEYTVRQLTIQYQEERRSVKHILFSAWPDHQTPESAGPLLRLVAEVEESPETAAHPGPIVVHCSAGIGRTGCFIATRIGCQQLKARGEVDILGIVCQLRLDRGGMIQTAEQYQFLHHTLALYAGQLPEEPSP

[26] = molecular target: T7, Tyrosine-protein phosphatase non-receptor type 22; experiment: SAR LYP1 Fluorescent Assay using pCAP substrate for In Vitro dose response studies - Set 2. [Related pubchem assays (depositor defined):AID1779, AID1784, AID2135, AID449727]; type: functional
[27] = molecular target: T7, Tyrosine-protein phosphatase non-receptor type 22; experiment: PubChem AID 2135

T1 sequence (Q9HC97 whole entry): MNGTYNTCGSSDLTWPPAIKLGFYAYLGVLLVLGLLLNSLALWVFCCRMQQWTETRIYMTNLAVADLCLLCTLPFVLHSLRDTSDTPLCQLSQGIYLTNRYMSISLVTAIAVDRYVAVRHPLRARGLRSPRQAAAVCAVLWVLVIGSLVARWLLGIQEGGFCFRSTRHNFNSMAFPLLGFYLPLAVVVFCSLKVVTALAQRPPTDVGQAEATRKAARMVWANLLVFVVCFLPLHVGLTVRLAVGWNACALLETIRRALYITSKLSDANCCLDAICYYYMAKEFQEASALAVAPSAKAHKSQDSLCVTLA

CCCCC1(Cc2ccc(OC)c([N+](=O)[O-])c2)C(=O)N(c2ccccc2)N(c2ccccc2)C1=O
EC50 [1]: > 32 µM (inactive) | IC50 (Cannabinoid receptor 1 [2]): > 32 µM (inactive) | IC50 [3]: > 32 µM (inactive) | EC50 (Cannabinoid receptor 2 [4]): > 32 µM (inactive) | EC50 (Cannabinoid receptor 1 [5]): > 32 µM (inactive) | IC50 [6]: 1.81 µM (active) | IC50 [7]: 3.42 µM (active) | IC50 (Cannabinoid receptor 2 [8]): > 32 µM (inactive)

CN[C@@H](C)C(=O)N[C@H](C(=O)N1CCC[C@H]1C(=O)NNc1ccccc1)C(C)C
IC50 [9]: 1.3 µM (active) | IC50 [10]: 2.9 µM (active)

CCNC(=O)c1cc2c(=O)n3ccccc3nc2n(C2CCCC2)c1=N
EC50 (Cannabinoid receptor 2 [11]): 3.01 µM (active) | EC50 (Cannabinoid receptor 1 [12]): > 32 µM (inactive) | IC50 (Cannabinoid receptor 2 [13]): > 32 µM (inactive) | EC50 [14]: > 32 µM (inactive) | IC50 (Cannabinoid receptor 1 [15]): > 32 µM (inactive) | IC50 [16]: > 32 µM (inactive) | IC50 [17]: 29.7 µM (inactive)

Cc1ccccc1S(=O)(=O)NCc1ccc(C(=O)NCCN(Cc2ccccc2)C(C)C)cc1
IC50 [18]: 2.34 µM (active) | IC50 [19]: 2.49 µM (active)

N#C/C(=C/c1ccc(OCc2ccc(C(=O)O)cc2)cc1)c1cccc(F)c1
IC50 [20]: > 100 µM (inactive) | IC50 [21]: 21 µM (active) | IC50 [22]: 82.9 µM (active) | IC50 [23]: 65.5 µM (active) | IC50 [24]: > 100 µM (inactive) | IC50 [25]: 3.65 µM (active) | IC50 [26]: 86.7 µM (active) | IC50 [27]: > 100 µM (inactive)

— ChEMBL document CHEMBL1201862, “PubChem BioAssay data set” (2004)
